Measured values published in patent US20120309798A1, “Tumour Treatment Agents and Method” (Vivolux AB, priority 2009, published 2012).

tested on: solid and hematological patient tumor samples; assay: Relative effect on solid and hematological tumor samples (S/H ratio), FMCA; type: cell-based, human; details: n=98 patient samples; FIG. 2b
Excerpt: (§1) Cell culture. Patient tumor samples (98) and preparations (4) of normal peripheral blood mononuclear cells (PBMC), detailed in Table 1, were used to determine the activity of VLX50 and, for comparison, six other cytotoxic drugs chosen to represent different mechanistic classes.
The tumor samples were obtained by bone marrow/peripheral blood sampling, routine surgery or diagnostic biopsy. Leukemic cells and PBMCs were isolated by 1.077 g ml-1 Ficoll-Paque centrifugation (Larsson et al., 1992). Tumor tissue from solid tumor samples was minced into small pieces and tumor cells were isolated by collagenase dispersion followed by Percoll density gradient centrifugation (Csoka et al., 1994). […] Cell viability was determined by trypan blue exclusion test and the proportion of tumor cells in the preparation was judged by inspection of May-Grunvald-Giemsa stained cytospin slides (FIG. 1a). […]
Fluorometric Microculture Cytotoxicity Assay. The Fluorometric Microculture Cytotoxicity Assay, FMCA, described in detail previously (Lindhagen et al., 2008), is based on measurement of fluorescence generated from hydrolysis of fluorescein diacetate (FDA) to fluorescein by cells with intact plasma membranes. […] Quality criteria for a successful assay included a mean coefficient of variation of less than 30% in the control and a fluorescence signal in control wells of more than 5 times the blank. […]

| SMILES | S/H ratio (ratio between total response rates for solid and hematological samples) |
| --- | --- |
| N.N.[Cl][Pt][Cl] [cisplatin, reference compound] | 1.2 |

tested on: cells from CLL and normal PBMC; assay: Tumor cell specificity: drug effect in CLL cells versus normal PBMC, FMCA; type: cell-based, human; details: PBMC n=4, CLL n=9; t-test, p<0.05; FIG. 2c
Excerpt: as §1
The tumor samples were obtained by bone marrow/peripheral blood sampling, routine surgery or diagnostic biopsy. Leukemic cells and PBMCs were isolated by 1.077 g ml-1 Ficoll-Paque centrifugation (Larsson et al., 1992). Tumor tissue from solid tumor samples was minced into small pieces and tumor cells were isolated by collagenase dispersion followed by Percoll density gradient centrifugation (Csoka et al., 1994). The sampling of primary tumor cells was approved by the local ethics committee at Uppsala University Hospital. Cell viability was determined by trypan blue exclusion test and the proportion of tumor cells in the preparation was judged by inspection of May-Grunvald-Giemsa stained cytospin slides (FIG. 1a). All samples used in this study contained more than 70% tumor cells.
Fluorometric Microculture Cytotoxicity Assay. The Fluorometric Microculture Cytotoxicity Assay, FMCA, described in detail previously (Lindhagen et al., 2008), is based on measurement of fluorescence generated from hydrolysis of fluorescein diacetate (FDA) to fluorescein by cells with intact plasma membranes. Cells were seeded in the drug-prepared 384-well plates using the pipetting robot Precision 2000 (Bio-Tek Instruments Inc., Winooski, Vt.). The number of cells per well were 2500-5000. Two columns without drugs served as controls and one column with medium only served as blank. The plates were incubated for 72 h and then transferred to an integrated HTS SAIGAN Core System consisting of an ORCA robot (Beckman Coulter) with CO2 incubator (Cytomat 2C, Kendro, Sollentuna, Sweden), dispensor module (Multidrop 384, Titertek, Huntsville, Ala.), washer module (ELx 405, Bio-Tek Instruments Inc), delidding station, plate hotels, barcode reader (Beckman Coulter), liquid handler (Biomek 2000, Beckman Coulter) and a multipurpose reader (FLUOstar Optima, BMG Labtech GmbH, Offenburg, Germany) for automated FMCA. Quality criteria for a successful assay included a mean coefficient of variation of less than 30% in the control and a fluorescence signal in control wells of more than 5 times the blank.
Dose-response data were analyzed using calculated survival index values and the software program GraphPadPrism4 (GraphPad Software Inc., San Diego, Calif., USA). Data was processed using non-linear regression to a standard sigmoidal dose-response model to obtain IC50-values (inhibitory concentration 50%).
In FIG. 2a the response rates for VLX50 at 4 μM for the patient samples are listed according to diagnoses. […] Lung cancer, AML and CML had intermediate response rates. The relative effect of VLX50 and six standard cytotoxic drugs, in solid and hematological tumor samples, expressed as the S/H ratio, is shown in FIG. 2b. […] The results for the standard drugs are consistent with their main clinical use.

| SMILES | Activity in CLL compared with PBMC |
| --- | --- |
| Nc1ccn([C@@H]2O[C@H](CO)[C@@H](O)[C@@H]2O)c(=O)n1 [cytarabin] | significantly higher activity in PBMC than in CLL cells |
| N.N.[Cl][Pt][Cl] [cisplatin, reference compound] | No difference |
| COc1cc([C@@H]2c3cc4c(cc3[C@@H](O[C@@H]3O[C@@H]5CO[C@@H](C)O[C@H]5[C@H](O)[C@H]3O)[C@H]3COC(=O)[C@H]23)OCO4)cc(OC)c1O [etoposide] | No difference |
| CC[C@]1(O)C[C@H]2CN(CCc3c([nH]c4ccccc34)[C@@](C(=O)OC)(c3cc4c(cc3OC)N(C=O)[C@H]3[C@@](O)(C(=O)OC)[C@H](OC(C)=O)[C@]5(CC)C=CCN6CC[C@]43[C@@H]65)C2)C1 [vincristine] | significantly more active in CLL than in PBMC |
| N[C@@H](Cc1ccc(N(CCCl)CCCl)cc1)C(=O)O [melphalan] | significantly higher activity in PBMC than in CLL cells |
| COc1cccc2c1C(=O)c1c(O)c3c(c(O)c1C2=O)C[C@@](O)(C(=O)CO)C[C@@H]3O[C@H]1C[C@H](N)[C@H](O)[C@H](C)O1 [doxorubicin] | No difference |
